Target: T1, Human CXCR4 transfected HEK293 cells (Homo sapiens, UniProt P61073)
T1 construct: expressed in transfected cells; host or cells: HEK293
Experiment: CXCR4 functional calcium assay (calcium flux FLIPR, antagonism of SDF1 response)
Type: cell-based
Conditions: CXCR4 functional activity, antagonism of SDF1 (EC50 concentration), read-out: CXCR4 fKi
Protocol: The functional activity of test compounds was routinely tested by measuring the ability of compounds to antagonize CXCR4 activity in a dose dependent manner, using a calcium flux Fluorescent Imaging Plate Reader FLIPR assay.
Human CXCR4 transfected HEK293 cells were cultured in Dulbecco's modified Eagles medium containing 4.5 g/L glucose, L-glutamine, pyruvate, 50 µg/mL Geneticin and 250 µg/mL hygromycin B and maintained at 37° C. in a humidified, 5% CO2 controlled atmosphere. Subcultivations were performed every 2-3 d.
At confluence the cells were lifted using Ca^2+ and Mg^2+ free PBS/0.02% (w/v) EDTA, spun at 1000 rpm for 3 min and resuspended at 2.5×10^5 cells/mL. Cells were plated into a 384 well, poly-d-lysine coated, black with clear bottomed plate (Becton Dickinson) at 7500 cells/well. The plates were incubated overnight at 37° C. under 5% CO2. On the day of the experiment the cells were washed with incubation Buffer (HBSS containing 2.5 mM probenecid, 0.1% w/v BSA and 10 mM HEPES, pH 7.4 at 37° C.). After washing, the cells were loaded with Fluo-4 AM dye (Molecular probes) at 2 µM containing 0.48 µg/mL pluronic acid for 60 min at 37° C. under 5% CO2. After thorough washing with incubation buffer the cells were preincubated for 10 min at 37° C. before use.
A combined agonist/antagonist protocol was used to measure changes in intracellular calcium concentration. Compound (antagonist) was added to the cell plate using a Fluorometric Imaging Plate Reader (FLIPR) (Molecular Devices, Sunnyvale, Calif., USA). Basal fluorescence was recorded every second for 10 seconds prior to compound addition (10 μl) and fluorescence recorded every second for 1 min then every 6 seconds for a further 1 min. SDF1[…] (EC50 concentration) was then added using the FLIPR and fluorescence recorded as described above. Curve-fitting and parameter estimation were carried out using GraphPad Prism 4.0 (GraphPad Software Inc., San Diego, Calif.).

T1 sequence (P61073 whole entry): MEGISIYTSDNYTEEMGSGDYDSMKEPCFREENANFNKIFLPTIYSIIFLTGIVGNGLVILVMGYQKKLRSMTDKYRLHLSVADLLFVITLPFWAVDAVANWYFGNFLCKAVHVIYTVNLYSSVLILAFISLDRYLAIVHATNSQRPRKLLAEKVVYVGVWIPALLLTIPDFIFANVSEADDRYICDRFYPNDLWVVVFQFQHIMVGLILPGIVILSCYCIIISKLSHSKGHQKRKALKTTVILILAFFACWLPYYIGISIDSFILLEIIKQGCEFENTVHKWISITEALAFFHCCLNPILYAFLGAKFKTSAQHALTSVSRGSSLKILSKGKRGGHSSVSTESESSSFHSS

| Ki [nM] | Compound |
| --- | --- |
| 100 to 500 | CC(C)N1CCC(N2CCCN(c3cccc(C(=O)NCC4CCOCC4)n3)CC2)CC1 [Example 1, N-(Oxan-4-ylmethyl)-6-{4-[1-(propan-2-yl)piperidin-4-yl]-1,4-diazepan-1-yl}pyridine-2-carboxamide] |
| 100 to 500 | CC(C)N1CCC(N2CCCN(c3cccc(C(=O)NC4CCOCC4)n3)CC2)CC1 [Example 2, N-(Oxan-4-yl)-6-{4-[1-(propan-2-yl)piperidin-4-yl]-1,4-diazepan-1-yl}pyridine-2-carboxamide] |
| 100 to 500 | CC(C)N1CCC(N2CCCN(c3cccc(C(=O)NCCCn4ccnc4)n3)CC2)CC1 [Example 3, N-[3-(1H-Imidazol-1-yl)propyl]-6-{4-[1-(propan-2-yl)piperidin-4-yl]-1,4-diazepan-1-yl}pyridine-2-carboxamide] |
| 100 to 500 | CCNC(=O)c1cccc(N2CCCN(C3CCN(C(C)C)CC3)CC2)n1 [Example 4, N-Ethyl-6-{4-[1-(propan-2-yl)piperidin-4-yl]-1,4-diazepan-1-yl}pyridine-2-carboxamide] |
| 20 to 100 | CCCNC(=O)c1cccc(N2CCCN(C3CCN(C(C)C)CC3)CC2)n1 [Example 5, 6-{4-[1-(Propan-2-yl)piperidin-4-yl]-1,4-diazepan-1-yl}-N-propylpyridine-2-carboxamide] |
| 100 to 500 | CC(C)CNC(=O)c1cccc(N2CCCN(C3CCN(C(C)C)CC3)CC2)n1 [Example 6, N-(2-Methylpropyl)-6-{4-[1-(propan-2-yl)piperidin-4-yl]-1,4-diazepan-1-yl}pyridine-2-carboxamide] |
| 20 to 100 | CCCCNC(=O)c1cccc(N2CCCN(C3CCN(C(C)C)CC3)CC2)n1 [Example 7, N-Butyl-6-{4-[1-(propan-2-yl)piperidin-4-yl]-1,4-diazepan-1-yl}pyridine-2-carboxamide] |
| 100 to 500 | CC(C)N1CCC(N2CCCN(c3cccc(C(=O)NCCF)n3)CC2)CC1 [Example 8, N-(2-Fluoroethyl)-6-{4-[1-(propan-2-yl)piperidin-4-yl]-1,4-diazepan-1-yl}pyridine-2-carboxamide] |
| 100 to 500 | CC(C)N1CCC(N2CCCN(c3cccc(C(=O)NCC(F)F)n3)CC2)CC1 [Example 9, N-(2,2-Difluoroethyl)-6-{4-[1-(propan-2-yl)piperidin-4-yl]-1,4-diazepan-1-yl}pyridine-2-carboxamide] |
| 100 to 500 | CC(C)N1CCC(N2CCCN(c3cccc(C(=O)NCC(F)(F)F)n3)CC2)CC1 [Example 10, 6-{4-[1-(Propan-2-yl)piperidin-4-yl]-1,4-diazepan-1-yl}-N-(2,2,2-trifluoroethyl)pyridine-2-carboxamide] |
| 100 to 500 | CC(C)N1CCC(N2CCCN(c3cccc(C(=O)NC4CC4)n3)CC2)CC1 [Example 11, N-Cyclopropyl-6-{4-[1-(propan-2-yl)piperidin-4-yl]-1,4-diazepan-1-yl}pyridine-2-carboxamide] |
| 100 to 500 | CC(C)N1CCC(N2CCCN(c3cccc(C(=O)NCCO)n3)CC2)CC1 [Example 12, N-(2-Hydroxyethyl)-6-{4-[1-(propan-2-yl)piperidin-4-yl]-1,4-diazepan-1-yl}pyridine-2-carboxamide] |
| 100 to 500 | CC(C)N1CCC(N2CCCN(c3cccc(C(=O)NCCC#N)n3)CC2)CC1 [Example 13, N-(2-Cyanoethyl)-6-{4-[1-(propan-2-yl)piperidin-4-yl]-1,4-diazepan-1-yl}pyridine-2-carboxamide] |
| 20 to 100 | COCCNC(=O)c1cccc(N2CCCN(C3CCN(C(C)C)CC3)CC2)n1 [Example 14, N-(2-Methoxyethyl)-6-{4-[1-(propan-2-yl)piperidin-4-yl]-1,4-diazepan-1-yl}pyridine-2-carboxamide] |
| 100 to 500 | COCCCNC(=O)c1cccc(N2CCCN(C3CCN(C(C)C)CC3)CC2)n1 [Example 15, N-(3-Methoxypropyl)-6-{4-[1-(propan-2-yl)piperidin-4-yl]-1,4-diazepan-1-yl}pyridine-2-carboxamide] |
| 100 to 500 | CC(C)N1CCC(N2CCCN(c3cccc(C(=O)NCCN(C)C)n3)CC2)CC1 [Example 16, N-[2-(Dimethylamino)ethyl]-6-{4-[1-(propan-2-yl)piperidin-4-yl]-1,4-diazepan-1-yl}pyridine-2-carboxamide] |
| 500 to 1000 | CC(C)CN(C)C(=O)c1cccc(N2CCCN(C3CCN(C(C)C)CC3)CC2)n1 [Example 17, N-Methyl-N-(2-methylpropyl)-6-{4-[1-(propan-2-yl)piperidin-4-yl]-1,4-diazepan-1-yl}pyridine-2-carboxamide] |

| Ki [nM] | Compound |
| --- | --- |
| 100 to 500 | CC(C)N1CCC(N2CCCN(c3cccc(C(=O)N[C@H]4CCOC4)n3)CC2)CC1 [Example 18, N-[(3S)-Oxolan-3-yl]-6-{4-[1-(propan-2-yl)piperidin-4-yl]-1,4-diazepan-1-yl}pyridine-2-carboxamide] |
| 100 to 500 | CC(C)N1CCC(N2CCCN(c3cccc(C(=O)N[C@@H]4CCOC4)n3)CC2)CC1 [Example 19, N-[(3R)-Oxolan-3-yl]-6-{4-[1-(propan-2-yl)piperidin-4-yl]-1,4-diazepan-1-yl}pyridine-2-carboxamide] |
| 100 to 500 | CC(C)N1CCC(N2CCCN(c3cccc(C(=O)NC[C@H]4CCCO4)n3)CC2)CC1 [Example 20, N-[(2R)-Oxolan-2-ylmethyl]-6-{4-[1-(propan-2-yl)piperidin-4-yl]-1,4-diazepan-1-yl}pyridine-2-carboxamide] |
| 100 to 500 | CC(C)N1CCC(N2CCCN(c3cccc(C(=O)N4CCc5ccccc54)n3)CC2)CC1 [Example 21, 1-[(6-{4-[1-(Propan-2-yl)piperidin-4-yl]-1,4-diazepan-1-yl}pyridin-2-yl)carbonyl]-2,3-dihydro-1H-indole] |
| 100 to 500 | CC(C)N1CCC(N2CCCN(c3cccc(C(=O)N4CCc5ccccc5C4)n3)CC2)CC1 [Example 22, 2-[(6-{4-[1-(Propan-2-yl)piperidin-4-yl]-1,4-diazepan-1-yl}pyridin-2-yl)carbonyl]-1,2,3,4-tetrahydroisoquinoline] |
| < 20 | CC(C)N1CCC(N2CCCN(c3cccc(C(=O)Nc4ccccc4)n3)CC2)CC1 [Example 23, N-Phenyl-6-{4-[1-(propan-2-yl)piperidin-4-yl]-1,4-diazepan-1-yl}pyridine-2-carboxamide] |
| 20 to 100 | CC(C)N1CCC(N2CCCN(c3cccc(C(=O)Nc4ccccc4O)n3)CC2)CC1 [Example 24, N-(2-Hydroxyphenyl)-6-{4-[1-(propan-2-yl)piperidin-4-yl]-1,4-diazepan-1-yl}pyridine-2-carboxamide] |
| 100 to 500 | CC(C)N1CCC(N2CCCN(c3cccc(C(=O)Nc4ccc(Cl)cc4)n3)CC2)CC1 [Example 25, N-(4-Chlorophenyl)-6-{4-[1-(propan-2-yl)piperidin-4-yl]-1,4-diazepan-1-yl}pyridine-2-carboxamide] |
| 20 to 100 | COc1ccc(NC(=O)c2cccc(N3CCCN(C4CCN(C(C)C)CC4)CC3)n2)cc1 [Example 26, N-(4-Methoxyphenyl)-6-{4-[1-(propan-2-yl)piperidin-4-yl]-1,4-diazepan-1-yl}pyridine-2-carboxamide] |
| 20 to 100 | Cc1ccc(NC(=O)c2cccc(N3CCCN(C4CCN(C(C)C)CC4)CC3)n2)cc1 [Example 27, N-(4-Methylphenyl)-6-{4-[1-(propan-2-yl)piperidin-4-yl]-1,4-diazepan-1-yl}pyridine-2-carboxamide] |
| < 20 | CC(C)N1CCC(N2CCCN(c3cccc(C(=O)Nc4ccccn4)n3)CC2)CC1 [Example 28, 6-{4-[1-(Propan-2-yl)piperidin-4-yl]-1,4-diazepan-1-yl}-N-(pyridin-2-yl)pyridine-2-carboxamide] |
| 20 to 100 | CC(C)N1CCC(N2CCCN(c3cccc(C(=O)Nc4cccnc4)n3)CC2)CC1 [Example 29, 6-{4-[1-(Propan-2-yl)piperidin-4-yl]-1,4-diazepan-1-yl}-N-(pyridin-3-yl)pyridine-2-carboxamide] |
| < 20 | CC(C)N1CCC(N2CCCN(c3cccc(C(=O)Nc4nccs4)n3)CC2)CC1 [Example 31, 6-{4-[1-(Propan-2-yl)piperidin-4-yl]-1,4-diazepan-1-yl}-N-(1,3-thiazol-2-yl)pyridine-2-carboxamide] |
| < 20 | CC(C)N1CCC(N2CCCN(c3cccc(C(=O)Nc4cncs4)n3)CC2)CC1 [Example 32, 6-{4-[1-(Propan-2-yl)piperidin-4-yl]-1,4-diazepan-1-yl}-N-(1,3-thiazol-5-yl)pyridine-2-carboxamide] |
| 20 to 100 | CC(C)N1CCC(N2CCCN(c3cccc(C(=O)NCc4ccccn4)n3)CC2)CC1 [Example 33, 6-{4-[1-(Propan-2-yl)piperidin-4-yl]-1,4-diazepan-1-yl}-N-(pyridin-2-ylmethyl)pyridine-2-carboxamide] |
| < 20 | CC(C)N1CCC(N2CCCN(c3cccc(C(=O)NCc4cccnc4)n3)CC2)CC1 [Example 34, 6-{4-[1-(Propan-2-yl)piperidin-4-yl]-1,4-diazepan-1-yl}-N-(pyridin-3-ylmethyl)pyridine-2-carboxamide] |
